Test results from ChEMBL document CHEMBL6182944, “Substrate Specificity of the Organic Cation Transporters MATE1 and MATE2K and Functional Overlap with OCT1 and OCT2” (J Med Chem, 2025).

Columns and labels:
[1] = biological target: T1, Multidrug and toxin extrusion protein 1 (Homo sapiens, UniProt Q96FL8); assay: Substrate activity at MATE1 (unknown origin) expressed in HEK293 cells assessed as Vmax (maximum transport velocity) by HPLC-MS/MS analysis; type: cell-based
T1 sequence (Q96FL8 whole entry): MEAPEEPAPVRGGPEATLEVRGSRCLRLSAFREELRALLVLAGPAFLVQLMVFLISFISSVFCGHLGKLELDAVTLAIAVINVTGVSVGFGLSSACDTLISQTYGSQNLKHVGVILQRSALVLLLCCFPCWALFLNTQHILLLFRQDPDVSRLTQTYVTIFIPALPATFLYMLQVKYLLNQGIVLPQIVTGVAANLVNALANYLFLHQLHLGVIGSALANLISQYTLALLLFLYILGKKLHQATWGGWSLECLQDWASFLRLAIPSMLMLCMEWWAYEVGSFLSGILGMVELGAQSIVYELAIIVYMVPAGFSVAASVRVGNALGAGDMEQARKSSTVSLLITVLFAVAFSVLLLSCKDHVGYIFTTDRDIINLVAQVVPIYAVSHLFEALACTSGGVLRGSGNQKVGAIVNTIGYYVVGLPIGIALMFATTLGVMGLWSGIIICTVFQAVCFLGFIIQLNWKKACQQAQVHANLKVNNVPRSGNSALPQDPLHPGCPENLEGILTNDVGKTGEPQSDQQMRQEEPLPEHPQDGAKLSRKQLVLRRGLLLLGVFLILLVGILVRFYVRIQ

[2] = biological target: T1, Multidrug and toxin extrusion protein 1; assay: Substrate activity at MATE1 (unknown origin) expressed in HEK293 cells assessed as intrinsic clearance by measuring ratio of Vmax (maximum transport velocity) over Km measured per mg of protein by HPLC-MS/MS analysis; type: cell-based
[3] = biological target: T2, Multidrug and toxin extrusion protein 2 (Homo sapiens, UniProt Q86VL8); assay: Substrate activity at MATE2-K (unknown origin) expressed in HEK293 cells assessed as intrinsic clearance by measuring ratio of Vmax (maximum transport velocity) over Km measured per mg of protein by HPLC-MS/MS analysis; type: cell-based
T2 sequence (Q86VL8 whole entry): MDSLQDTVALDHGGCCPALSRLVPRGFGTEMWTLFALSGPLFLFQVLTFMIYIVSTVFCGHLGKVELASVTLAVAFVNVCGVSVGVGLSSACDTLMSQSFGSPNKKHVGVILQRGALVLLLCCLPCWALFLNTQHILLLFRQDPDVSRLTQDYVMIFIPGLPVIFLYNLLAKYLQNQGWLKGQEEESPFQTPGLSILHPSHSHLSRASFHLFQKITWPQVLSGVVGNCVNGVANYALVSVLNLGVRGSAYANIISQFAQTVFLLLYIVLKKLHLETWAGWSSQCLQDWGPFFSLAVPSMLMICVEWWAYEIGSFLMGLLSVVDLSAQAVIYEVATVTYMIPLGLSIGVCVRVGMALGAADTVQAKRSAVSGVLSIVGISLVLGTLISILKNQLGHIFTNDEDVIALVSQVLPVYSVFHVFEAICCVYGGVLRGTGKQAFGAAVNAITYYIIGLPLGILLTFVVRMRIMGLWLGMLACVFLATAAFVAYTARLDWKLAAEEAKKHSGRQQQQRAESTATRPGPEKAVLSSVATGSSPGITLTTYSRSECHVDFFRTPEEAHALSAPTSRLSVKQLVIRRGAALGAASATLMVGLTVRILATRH

[4] = biological target: T1, Multidrug and toxin extrusion protein 1; assay: Substrate activity at MATE1 (unknown origin) expressed in HEK293 cells assessed as ratio of uptake by the enantiomer with higher value to enantiomer with lower value at 2.5 uM measured after 1 min by HPLC-MS/MS analysis; type: cell-based; conditions: hek293, 1 min
[5] = biological target: T2, Multidrug and toxin extrusion protein 2; assay: Substrate activity at MATE2-K (unknown origin) expressed in HEK293 cells assessed as ratio of uptake by the enantiomer with higher value to enantiomer with lower value at 2.5 uM measured after 1 min by HPLC-MS/MS analysis; type: cell-based; conditions: hek293, 1 min
[6] = biological target: T2, Multidrug and toxin extrusion protein 2; assay: Substrate activity at MATE2-K (unknown origin) expressed in HEK293 cells assessed as Vmax (maximum transport velocity) by HPLC-MS/MS analysis; type: cell-based
[7] = biological target: T3, MATE1 (Homo sapiens, UniProt Q96FL8); assay: in vitro
T3 sequence (Q96FL8 whole entry): T1 sequence (Q96FL8 whole entry)

[8] = biological target: T4, MATE2-K (Homo sapiens, UniProt Q86VL8); assay: in vitro
T4 sequence (Q86VL8 whole entry): T2 sequence (Q86VL8 whole entry)

[9] = biological target: T1, Multidrug and toxin extrusion protein 1; assay: Substrate activity at MATE1 (unknown origin) expressed in HEK293 cells assessed as increase in uptake by HPLC-MS/MS analysis; type: cell-based
[10] = biological target: T2, Multidrug and toxin extrusion protein 2; assay: Substrate activity at MATE2-K (unknown origin) expressed in HEK293 cells assessed as increase in uptake by HPLC-MS/MS analysis; type: cell-based
[11] = HEK293 cells expressing MATE2-K

Row | Structure (SMILES) | Vmax [1] | CL [2] | CL [3] | Ratio [4] | Ratio [5] | also measured
1 | Nc1nc(=O)n([C@@H]2CS[C@H](CO)O2)cc1F [EMTRICITABINE] | 4523 pmol/min | 4.56 µL/min | 3.02 µL/min | – | – | –
2 | COc1ccc(C(CN(C)C)C2(O)CCCCC2)cc1 (racemic) [VENLAFAXINE] | – | – | – | > 1 | > 1 | –
3 | NC[C@H](O)c1ccc(O)c(O)c1 [NOREPINEPHRINE] | 18720 pmol/min | 10 µL/min | 0.59 µL/min | – | – | Vmax [6]: 673 pmol/min
4 | Cc1cccc(C)c1OCC(C)N (racemic) [MEXILETINE] | – | – | – | > 1 | > 1 | uptake ratio at 1 min, 2.5 µM ([7]; hek293): < 2; uptake ratio at 1 min, 2.5 µM ([8]; hek293): < 2
5 | C[C@H]1N=C(N(C)C)N=C(N)N1 [IMEGLIMIN] | 6242 pmol/min | 108 µL/min | 34.5 µL/min | – | – | uptake ratio at 1 min, 2.5 µM ([7]; HEK293 cells expressing MATE1): > 2; uptake ratio at 1 min, 2.5 µM [8, 11]: > 2
6 | CNCCC(Oc1ccccc1C)c1ccccc1 (racemic) | – | – | – | 1 | > 1 | –
7 | Cc1cc2nc3c(=O)[nH]c(=O)nc-3n(C[C@H](O)[C@H](O)[C@H](O)CO)c2cc1C [RIBOFLAVIN] | – | – | – | – | – | Activity [9]: Dose-dependent-effect; Activity [10]: Dose-dependent-effect
8 | COc1ccccc1OCCNCC(O)COc1cccc2[nH]c3ccccc3c12 (racemic) [CARVEDILOL] | – | – | – | 1 | > 1 | –
9 | Nc1ccn([C@@H]2CS[C@H](CO)O2)c(=O)n1 [LAMIVUDINE] | – | – | – | – | – | Activity [9]: Dose-dependent-effect; Activity [10]: Dose-dependent-effect
10 | CNCC(O)c1cccc(O)c1 (racemic) | – | – | – | > 1 | > 1 | –
11 | C#CCNC1CCc2ccccc21 (racemic) | – | – | – | > 1 | > 1 | –
12 | NCCc1ccc(O)cc1 [TYRAMINE] | 5948 pmol/min | 43.6 µL/min | 2.71 µL/min | – | – | Vmax [6]: 2868 pmol/min; uptake ratio at 1 min, 2.5 µM ([7]; hek293): > 2; uptake ratio at 1 min, 2.5 µM ([8]; hek293): < 2
13 | O=C(O[C@H]1C[N+]2(CCCOc3ccccc3)CCC1CC2)C(O)(c1cccs1)c1cccs1.[Br-] (mixture of isomers) [ACLIDINIUM BROMIDE] | – | – | – | > 1 | > 1 | –
14 | CC(C)(C)NCC(O)c1ccc(O)c(CO)c1 (racemic) [ALBUTEROL] | – | – | – | > 1 | > 1 | uptake ratio at 1 min, 2.5 µM ([7]; HEK293 cells expressing MATE1): > 2; uptake ratio at 1 min, 2.5 µM [8, 11]: > 2
15 | CN(C)CCCC1(c2ccc(F)cc2)OCc2cc(C#N)ccc21 (racemic) [CITALOPRAM] | – | – | – | > 1 | > 1 | –
16 | CNC[C@H](O)c1ccc(O)c(O)c1 [EPINEPHRINE] | 22773 pmol/min | 21.1 µL/min | 1.97 µL/min | – | – | uptake ratio at 1 min, 2.5 µM ([7]; hek293): > 2; uptake ratio at 1 min, 2.5 µM ([8]; hek293): > 2
17 | C#CCN[C@@H]1CCc2ccccc21 [RASAGILINE] | 194 pmol/min | – | – | – | – | –
18 | CN(C)CCC=C1c2ccccc2COc2ccccc21 [DOXEPIN] | – | – | – | 1 | 1 | –
19 | [H]/N=C(/N)N/C(=N/[H])NCCc1ccccc1 [PHENFORMIN] | 8451 pmol/min | 83.9 µL/min | 18.6 µL/min | – | – | Vmax [6]: 1361 pmol/min; uptake ratio at 1 min, 2.5 µM ([7]; hek293): > 2; uptake ratio at 1 min, 2.5 µM ([8]; hek293): > 2
20 | CCN1CCCC1CNC(=O)c1cc(S(=O)(=O)CC)c(N)cc1OC (racemic) [AMISULPRIDE] | 238 pmol/min | 22.4 µL/min | 17.8 µL/min | > 1 | > 1 | uptake ratio at 1 min, 2.5 µM ([7]; HEK293 cells expressing MATE1): > 2; uptake ratio at 1 min, 2.5 µM [8, 11]: > 2
